For data set [1], the system named is CPXV. As to the kind of experiment: microbe, parasite or virus in culture. It is filed as cell-based.
The test system of data set [2] is CPXV. The experiment in a line: microbe, parasite or virus in culture. It is filed as cell-based. Conditions: Cowpox virus, Vero C1008, 24 h.
In data set [3] the test system is VACV. As to the kind of experiment: microbe, parasite or virus in culture. The conditions noted are these: Orthopoxvirus vaccinia, Huh-7, 24 h. It is filed as cell-based.
The subject of data set [4] is VACV. As to the kind of experiment: microbe, parasite or virus in culture. It is filed as cell-based. The conditions noted are these: Orthopoxvirus vaccinia, Vero C1008, 24 h.
Data set [5] is described as follows: in vitro. The conditions noted are these: human.
The nature of data set [6]: in vitro. Conditions: African green monkey.

For orientation: IC50 means the concentration needed to halve the response being measured.

Counter-ions that a name gives are not always drawn.

For `NC(=O)c1cn([C@@H]2O[C@H](CO)[C@@H](O)[C@H]2O)c2ncnc(N)c12` [Oya1, 4-amino-7-((2R,3R,4S,5R)-3,4-dihydroxy-5-(hydroxymethyl)tetrahydrofuran-2-yl)-7H-pyrrolo[2,3-d]pyrimidine-5-carboxamide], the IC50 stood at 220 ± 10 nM in the data set on CPXV [1] (Cowpox virus, Huh-7, 24 h); 200 ± 10 nM in the data set with CPXV [2]; 50 ± 10 nM with VACV [3]; 20 ± 10 nM with VACV [4]. For the same molecule, the CC50 in the data set “in vitro [5]” and in the data set “in vitro [6]” was over 600 nM each time.
Molecule `NC(=O)c1cn([C@@H]2O[C@H](CO)[C@@H](O)[C@H]2O)c2ncnc(N)c12` [Oya2, 4-amino-7-((2R,3R,4S,5R)-3,4-dihydroxy-5-(hydroxymethyl)tetrahydrofuran-2-yl)-7H-pyrrolo[2,3-d]pyrimidine-5-carboxamide hydrochloride] came in with an IC50 in the data set on CPXV [1] (hydrochloride) of 240 ± 10 nM.
